The nature of test [1]: Inhibition of trypsin.
Test [2] has as its target Prothrombin (Homo sapiens, UniProt P00734).

This is an account of results in ChEMBL document CHEMBL1141805, “Isolation of 1-Methylherbipoline Salts of Halisulfate-1 and of Suvanine as Serine Protease Inhibitors from a Marine Sponge, Coscinoderma mathewsi” (J Nat Prod, 1998).

pIC50: −log10 of the molar value.

Regarding `CC1(C)CCC[C@H]2[C@H]1CC[C@@]1(C)[C@@H]2CC/C(=C\OS(=O)(=O)[O-])[C@@H]1CCc1ccoc1.[Na+]`, in test [1], the IC50 was determined as 27 µg/mL. For the same compound, the pIC50 in test [2] is 4.71.

In test [1], `CC1(C)CCC[C@H]2[C@H]1CC[C@@]1(C)[C@@H]2CC/C(=C\OS(=O)(=O)[O-])[C@@H]1CCc1ccoc1.C[N+](C)=C(N)N` came in with an IC50 of 23 µg/mL. In test [2], this compound showed a pIC50 of 4.32.

In test [1], `C/C(=C\Cc1cc(O)ccc1O)CCC[C@@H](C)[C@@H](C[C@@H]1CCC[C@H]2C(C)(C)CCC[C@@]12C)OS(=O)(=O)[O-].[Na+]` [HALISULPHATESODIUM] yielded an IC50 of 2 µg/mL. Besides, in test [2], the pIC50 is 4.20.
